Data reported in ChEMBL document CHEMBL1201862, “PubChem BioAssay data set” (2004).
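Cultured in 96-well plates, cells were exposed to test compound for 48 hours across five concentrations. The concentration for 50% growth inhibition is given as GI50.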 Activity calls are given as the source filed them. Cut-off read from the data, not from the text of the source: active = GI50 up to about 1.1 µM and inactive = higher.

How the values were obtained:
Assay in all cases: NCI anticancer screen, dose series, 48 h
786-0 = test system: 786-0
A498 = test system: A498
A549 = test system: A549
ACHN = test system: ACHN
CAKI-1 = test system: CAKI-1
CCRF-CEM = test system: CCRF-CEM
COLO 205 = test system: COLO 205
DU-145 = test system: DU-145
EKVX = test system: EKVX
HCC 2998 = test system: HCC 2998
HCT-116 = test system: HCT-116
HCT-15 = test system: HCT-15
HL-60 = test system: HL-60
HOP-62 = test system: HOP-62
HOP-92 = test system: HOP-92
HT-29 = test system: HT-29
Hs-578T = test system: Hs-578T
IGROV-1 = test system: IGROV-1
K562 = test system: K562
KM12 = test system: KM12
LOX IMVI = test system: LOX IMVI
M14 = test system: M14
MCF7 = test system: MCF7
MDA-MB-231 = test system: MDA-MB-231
MDA-MB-435 = test system: MDA-MB-435
MDA-N = test system: MDA-N
MOLT-4 = test system: MOLT-4
Malme-3M = test system: Malme-3M
NCI-H226 = test system: NCI-H226
NCI-H23 = test system: NCI-H23
NCI-H522 = test system: NCI-H522
NCI/ADR-RES = test system: NCI/ADR-RES
OVCAR-3 = test system: OVCAR-3
OVCAR-4 = test system: OVCAR-4
OVCAR-5 = test system: OVCAR-5
OVCAR-8 = test system: OVCAR-8
PC-3 = test system: PC-3
RPMI-8226 = test system: RPMI-8226
RXF 393 = test system: RXF 393
SF-268 = test system: SF-268
SF-295 = test system: SF-295
SF-539 = test system: SF-539
SK-MEL-28 = test system: SK-MEL-28
SK-MEL-2 = test system: SK-MEL-2
SK-MEL-5 = test system: SK-MEL-5
SK-OV-3 = test system: SK-OV-3
SN12C = test system: SN12C
SNB-19 = test system: SNB-19
SNB-75 = test system: SNB-75
SW-620 = test system: SW-620
T47D = test system: T47D
TK-10 = test system: TK-10
U-251 = test system: U-251
UACC-257 = test system: UACC-257
UO-31 = test system: UO-31

CCC#CCCCCCCCCC(F)C(=O)O (stereo not given)
GI50 (786-0): > 100 µM (inactive) | GI50 (A498): > 100 µM (inactive) | GI50 (A549): > 100 µM (inactive) | GI50 (ACHN): > 100 µM (inactive) | GI50 (CAKI-1): > 100 µM (inactive) | GI50 (CCRF-CEM): > 100 µM (inactive) | GI50 (COLO 205): > 100 µM (inactive) | GI50 (DU-145): > 100 µM (inactive) | GI50 (EKVX): > 100 µM (inactive) | GI50 (HCC 2998): > 100 µM (inactive) | GI50 (HCT-116): > 100 µM (inactive) | GI50 (HCT-15): > 100 µM | GI50 (HL-60): > 100 µM (inactive) | GI50 (HOP-62): > 100 µM (inactive) | GI50 (HOP-92): > 100 µM (inactive) | GI50 (HT-29): > 100 µM (inactive) | GI50 (Hs-578T): > 100 µM (inactive) | GI50 (IGROV-1): > 100 µM (inactive) | GI50 (K562): > 100 µM (inactive) | GI50 (KM12): > 100 µM (inactive) | GI50 (LOX IMVI): > 100 µM (inactive) | GI50 (M14): > 100 µM (inactive) | GI50 (MCF7): > 100 µM (inactive) | GI50 (MDA-MB-231): > 100 µM (inactive) | GI50 (MDA-MB-435): > 100 µM (inactive) | GI50 (MDA-N): > 100 µM (inactive) | GI50 (MOLT-4): > 100 µM (inactive) | GI50 (Malme-3M): > 100 µM (inactive) | GI50 (NCI-H226): > 100 µM (inactive) | GI50 (NCI-H23): > 100 µM (inactive) | GI50 (NCI-H522): > 100 µM (inactive) | GI50 (NCI/ADR-RES): > 100 µM (inactive) | GI50 (OVCAR-3): > 100 µM (inactive) | GI50 (OVCAR-4): > 100 µM (inactive) | GI50 (OVCAR-5): > 100 µM (inactive) | GI50 (OVCAR-8): > 100 µM (inactive) | GI50 (PC-3): > 100 µM (inactive) | GI50 (RPMI-8226): > 100 µM (inactive) | GI50 (RXF 393): > 100 µM (inactive) | GI50 (SF-268): > 100 µM (inactive) | GI50 (SF-295): > 100 µM (inactive) | GI50 (SF-539): > 100 µM (inactive) | GI50 (SK-MEL-28): > 100 µM (inactive) | GI50 (SK-MEL-2): > 100 µM (inactive) | GI50 (SK-MEL-5): > 100 µM (inactive) | GI50 (SK-OV-3): > 100 µM (inactive) | GI50 (SN12C): > 100 µM (inactive) | GI50 (SNB-19): > 100 µM (inactive) | GI50 (SNB-75): > 100 µM (inactive) | GI50 (SW-620): > 100 µM (inactive) | GI50 (T47D): > 100 µM (inactive) | GI50 (TK-10): > 100 µM (inactive) | GI50 (U-251): > 100 µM (inactive) | GI50 (UACC-257): > 100 µM (inactive) | GI50 (UO-31): > 100 µM (inactive)
